Measured values published in US20160128951A1, “PHARMACEUTICAL COMPOSITIONS OF FINGOLIMOD” (AIZANT DRUG RESEARCH SOLUTIONS PVT LTD, priority 2013, published 2016).

Assay: Stability study (impurities) at 40° C./75% RH for one week
Format: physicochemical
Procedure: Stability study was conducted for active ingredient, compositions of the present invention and comparative composition. The study was conducted at 40° C./75% RH for one week.

[1] = After one week at 40° C./75% RH, Sample (API)

CCCCCCCCc1ccc(CCC(N)(CO)CO)cc1.Cl [API, 2-amino-2-[2-(4-octylphenyl)ethyl]-propane-1,3-diol]
0.05 % w/w: Impurity 1 [1] | Total Impurities [1] | Impurity 1 (Initial, Sample) | Total Impurities (Initial, Sample)
